Assay results from PubChem BioAssay (NCI).
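GI50: concentration for 50% inhibition of growth. The concentration for full growth arrest is given as TGI.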

Experiments:
Assay in all cases: inhibition of tumour cell growth, NCI panel, 384-well format
[1] = tested on: 786-0 renal
[2] = tested on: A498 renal
[3] = tested on: A549 NSCLC
[4] = tested on: BT-549 breast
[5] = tested on: CAKI-1 renal
[6] = tested on: CCRF-CEM leukemia
[7] = tested on: COLO 205 colon
[8] = tested on: DU-145 prostate
[9] = tested on: EKVX NSCLC
[10] = tested on: HCC-2998 colon
[11] = tested on: HCT-116 colon
[12] = tested on: HCT-15 colon
[13] = tested on: HL-60(TB) leukemia
[14] = tested on: HOP-62 NSCLC
[15] = tested on: HOP-92 NSCLC
[16] = tested on: HS 578T breast
[17] = tested on: HT29 colon
[18] = tested on: IGROV1 ovarian
[19] = tested on: K-562 leukemia
[20] = tested on: KM12 colon
[21] = tested on: LOX IMVI melanoma
[22] = tested on: M14 melanoma
[23] = tested on: MALME-3M melanoma
[24] = tested on: MCF7 breast
[25] = tested on: MDA-MB-231 breast
[26] = tested on: MDA-MB-435 melanoma
[27] = tested on: MDA-MB-468 breast
[28] = tested on: MOLT-4 leukemia

## COC[C@H]1Cn2cc(-c3nc(Nc4ccnn4C)ncc3C)nc2C(=O)N1Cc1ccc(F)c(F)c1
[1]
  GI50: 24600 nM
  TGI: > 100000 nM
[2]
  GI50: 1300 nM
  TGI: > 100000 nM
[3]
  GI50: 373 nM
  TGI: > 100000 nM
[4]
  GI50: 18600 nM
  TGI: > 100000 nM
[5]
  GI50: 509 nM
  TGI: > 100000 nM
[6]
  GI50: 17600 nM
  TGI: 37900 nM
[7]
  GI50: < 10 nM
  TGI: 360 nM
[8]
  GI50: 10400 nM
  TGI: > 100000 nM
[9]
  GI50: 11000 nM
  TGI: > 100000 nM
[10]
  GI50: 31.6 nM
  TGI: 219 nM
[11]
  GI50: 57.7 nM
  TGI: 32300 nM
[12]
  GI50: 24800 nM
  TGI: > 100000 nM
[13]
  GI50: 15.4 nM
  TGI: 1550 nM
[14]
  GI50: 2020 nM
  TGI: > 100000 nM
[15]
  GI50: 389 nM
  TGI: 11600 nM
[16]
  GI50: 15800 nM
  TGI: > 100000 nM
[17]
  GI50: 94.7 nM
  TGI: > 100000 nM
[18]
  GI50: 314 nM
  TGI: > 100000 nM
[19]
  GI50: 1030 nM
  TGI: > 100000 nM
[20]
  GI50: 255 nM
  TGI: > 100000 nM
[21]
  GI50: 39.3 nM
  TGI: 310 nM
[22]
  GI50: 10.6 nM
  TGI: 181 nM
[23]
  GI50: < 10 nM
  TGI: 23.7 nM
[24]
  GI50: 19600 nM
  TGI: > 100000 nM
[25]
  GI50: 266 nM
  TGI: > 100000 nM
[26]
  GI50: 35.5 nM
  TGI: > 100000 nM
[27]
  GI50: 14200 nM
  TGI: 52200 nM
[28]
  GI50: 16900 nM
